Values of other authors in patent US9173403B2, “Parasiticidal compositions comprising multiple active agents, methods and uses thereof” (MERIAL, INC., priority 2010, dated 2015).

Details: beagle dogs; spot-on administration; 14C radiolabeled drug

## N#Cc1nn(-c2c(Cl)cc(C(F)(F)F)cc2Cl)c(N)c1[S+]([O-])C(F)(F)F (stereo not shown) [fipronil, 5-amino-3-cyano-1-(2,6-dichloro-4-trifluoromethylphenyl)-4-trifluoromethylsulfinylpyrazole]
  time persistently detected in the whole skin after treatment: up to 56 days
